The conditions of the data set: Liquid.

± gives the expanded uncertainty stated by the source.

Take `CC(C)(C)N` [2-methyl-2-propanamine]: under “317.55 K”, the “vapor or sublimation pressure” value is recorded as 101 ± 0.86 kPa.

For `CN(C)C=O` [dimethylformamide], the “vapor or sublimation pressure” value (425.15 K) is reported as 101 ± 0.86 kPa.

In the case of `CO` [methanol], under “337.85 K”, the “vapor or sublimation pressure” value is 101 ± 0.86 kPa.
